ChEMBL document CHEMBL5625269, “Design, synthesis, and biological evaluation of novel benzo[6,7]indolo[3,4-c]isoquinolines as anticancer agents with topoisomerase I inhibition” (2024)
Calls of active or inactive are those of the source. The calls are words filed in the database; no cut-off is given here.

Test system: MCF7
Test: Growth inhibition of human MCF7 cells assessed as reduction in cell viability
Format: functional
Details: not given

| Compound | GI50 |
| --- | --- |
| COc1cc2c(cnc3c4ccc5cc(O)ccc5c4n(CCCn4ccnc4)c23)cc1O | 40 nM |
| COc1cc2c(cnc3c4ccc5cc(O)ccc5c4n(CCCN4CCC(N5CCCCC5)CC4)c23)cc1O | 263 nM |
| COc1cc2c(cc1O)c[n+]([O-])c1c3ccc4cc(O)ccc4c3n(C)c21 | 66 nM |
| COc1cc2c(cnc3c4ccc5cc(O)ccc5c4n(CCCN4CCOCC4)c23)cc1O | < 10 nM |
| COc1cc2c(cnc3c4ccc5cc(O)ccc5c4n(C)c23)cc1O | 437 nM |
| COc1cc2c(cnc3c4ccc5cc(O)ccc5c4n(CCCCl)c23)cc1O | 105 nM |
| COc1cc2c(ccc3c4c(=O)oc5cc(O)c(OC)cc5c4n(C)c23)cc1O | 9.6 nM |
| COc1cc2c(cnc3c4ccc5cc(O)ccc5c4n(CCN(C)C)c23)cc1O | 13 nM |

Test system: U-251
Test: Growth inhibition of human U-251 cells assessed as reduction in cell viability
Format: functional
Details: not given

| Compound | GI50 |
| --- | --- |
| COc1cc2c(cnc3c4ccc5cc(O)ccc5c4n(CCCn4ccnc4)c23)cc1O | 38 nM |
| COc1cc2c(cnc3c4ccc5cc(O)ccc5c4n(CCCN4CCC(N5CCCCC5)CC4)c23)cc1O | 708 nM |
| COc1cc2c(cc1O)c[n+]([O-])c1c3ccc4cc(O)ccc4c3n(C)c21 | 145 nM |
| COc1cc2c(cnc3c4ccc5cc(O)ccc5c4n(CCCN4CCOCC4)c23)cc1O | < 10 nM |
| COc1cc2c(cnc3c4ccc5cc(O)ccc5c4n(C)c23)cc1O | 123 nM |
| COc1cc2c(cnc3c4ccc5cc(O)ccc5c4n(CCCCl)c23)cc1O | 26 nM |
| COc1cc2c(ccc3c4c(=O)oc5cc(O)c(OC)cc5c4n(C)c23)cc1O | 1.3 nM |
| COc1cc2c(cnc3c4ccc5cc(O)ccc5c4n(CCN(C)C)c23)cc1O | < 10 nM |

Test system: HCT-116
Test: Growth inhibition of human HCT-116 cells assessed as reduction in cell viability
Format: functional
Details: not given

| Compound | GI50 |
| --- | --- |
| COc1cc2c(cnc3c4ccc5cc(O)ccc5c4n(CCCn4ccnc4)c23)cc1O | 324 nM |
| COc1cc2c(cnc3c4ccc5cc(O)ccc5c4n(CCCN4CCC(N5CCCCC5)CC4)c23)cc1O | 309 nM |
| COc1cc2c(cc1O)c[n+]([O-])c1c3ccc4cc(O)ccc4c3n(C)c21 | 209 nM |
| COc1cc2c(cnc3c4ccc5cc(O)ccc5c4n(CCCN4CCOCC4)c23)cc1O | < 10 nM |
| COc1cc2c(cnc3c4ccc5cc(O)ccc5c4n(C)c23)cc1O | 200 nM |
| COc1cc2c(cnc3c4ccc5cc(O)ccc5c4n(CCCCl)c23)cc1O | 115 nM |
| COc1cc2c(ccc3c4c(=O)oc5cc(O)c(OC)cc5c4n(C)c23)cc1O | 8.8 nM |
| COc1cc2c(cnc3c4ccc5cc(O)ccc5c4n(CCN(C)C)c23)cc1O | 65 nM |

Test system: A549
Test: Growth inhibition of human A549 cells assessed as reduction in cell viability
Format: functional
Details: not given

| Compound | GI50 |
| --- | --- |
| COc1cc2c(cnc3c4ccc5cc(O)ccc5c4n(CCCn4ccnc4)c23)cc1O | 15800 nM |
| COc1cc2c(cnc3c4ccc5cc(O)ccc5c4n(CCCN4CCC(N5CCCCC5)CC4)c23)cc1O | 1550 nM |
| COc1cc2c(cc1O)c[n+]([O-])c1c3ccc4cc(O)ccc4c3n(C)c21 | 3090 nM |
| COc1cc2c(cnc3c4ccc5cc(O)ccc5c4n(CCCN4CCOCC4)c23)cc1O | 49 nM |
| COc1cc2c(cnc3c4ccc5cc(O)ccc5c4n(C)c23)cc1O | 631 nM |
| COc1cc2c(cnc3c4ccc5cc(O)ccc5c4n(CCCCl)c23)cc1O | 447 nM |
| COc1cc2c(ccc3c4c(=O)oc5cc(O)c(OC)cc5c4n(C)c23)cc1O | 1.8 nM |
| COc1cc2c(cnc3c4ccc5cc(O)ccc5c4n(CCN(C)C)c23)cc1O | 380 nM |

Test system: LOX IMVI
Test: Growth inhibition of human LOX IMVI cells assessed as reduction in cell viability
Format: functional
Details: not given

| Compound | GI50 |
| --- | --- |
| COc1cc2c(cnc3c4ccc5cc(O)ccc5c4n(CCCn4ccnc4)c23)cc1O | 44 nM |
| COc1cc2c(cnc3c4ccc5cc(O)ccc5c4n(CCCN4CCC(N5CCCCC5)CC4)c23)cc1O | 363 nM |
| COc1cc2c(cc1O)c[n+]([O-])c1c3ccc4cc(O)ccc4c3n(C)c21 | 50 nM |
| COc1cc2c(cnc3c4ccc5cc(O)ccc5c4n(CCCN4CCOCC4)c23)cc1O | < 10 nM |
| COc1cc2c(cnc3c4ccc5cc(O)ccc5c4n(C)c23)cc1O | 178 nM |
| COc1cc2c(cnc3c4ccc5cc(O)ccc5c4n(CCCCl)c23)cc1O | 25 nM |
| COc1cc2c(ccc3c4c(=O)oc5cc(O)c(OC)cc5c4n(C)c23)cc1O | 2.6 nM |
| COc1cc2c(cnc3c4ccc5cc(O)ccc5c4n(CCN(C)C)c23)cc1O | < 10 nM |

Test system: SK-OV-3
Test: Growth inhibition of human SK-OV-3 cells assessed as reduction in cell viability
Format: functional
Details: not given

| Compound | GI50 |
| --- | --- |
| COc1cc2c(cnc3c4ccc5cc(O)ccc5c4n(CCCn4ccnc4)c23)cc1O | 9550 nM |
| COc1cc2c(cnc3c4ccc5cc(O)ccc5c4n(CCCN4CCC(N5CCCCC5)CC4)c23)cc1O | 1820 nM |
| COc1cc2c(cc1O)c[n+]([O-])c1c3ccc4cc(O)ccc4c3n(C)c21 | 1440 nM |
| COc1cc2c(cnc3c4ccc5cc(O)ccc5c4n(CCCN4CCOCC4)c23)cc1O | 18 nM |
| COc1cc2c(cnc3c4ccc5cc(O)ccc5c4n(C)c23)cc1O | 759 nM |
| COc1cc2c(cnc3c4ccc5cc(O)ccc5c4n(CCCCl)c23)cc1O | 537 nM |
| COc1cc2c(ccc3c4c(=O)oc5cc(O)c(OC)cc5c4n(C)c23)cc1O | 9.4 nM |
| COc1cc2c(cnc3c4ccc5cc(O)ccc5c4n(CCN(C)C)c23)cc1O | 380 nM |

Test system: ACHN
Test: Growth inhibition of human ACHN cells assessed as reduction in cell viability
Format: functional
Details: not given

| Compound | GI50 |
| --- | --- |
| COc1cc2c(cnc3c4ccc5cc(O)ccc5c4n(CCCn4ccnc4)c23)cc1O | 331 nM |
| COc1cc2c(cnc3c4ccc5cc(O)ccc5c4n(CCCN4CCC(N5CCCCC5)CC4)c23)cc1O | 1100 nM |
| COc1cc2c(cc1O)c[n+]([O-])c1c3ccc4cc(O)ccc4c3n(C)c21 | 37 nM |
| COc1cc2c(cnc3c4ccc5cc(O)ccc5c4n(CCCN4CCOCC4)c23)cc1O | < 10 nM |
| COc1cc2c(cnc3c4ccc5cc(O)ccc5c4n(C)c23)cc1O | 257 nM |
| COc1cc2c(cnc3c4ccc5cc(O)ccc5c4n(CCCCl)c23)cc1O | 32 nM |
| COc1cc2c(ccc3c4c(=O)oc5cc(O)c(OC)cc5c4n(C)c23)cc1O | < 1 nM |
| COc1cc2c(cnc3c4ccc5cc(O)ccc5c4n(CCN(C)C)c23)cc1O | 20 nM |

Test system: MKN-28
Test: Growth inhibition of human MKN-28 cells assessed as reduction in cell viability
Format: functional
Details: not given

| Compound | GI50 |
| --- | --- |
| COc1cc2c(cnc3c4ccc5cc(O)ccc5c4n(CCCn4ccnc4)c23)cc1O | 1950 nM |
| COc1cc2c(cnc3c4ccc5cc(O)ccc5c4n(CCCN4CCC(N5CCCCC5)CC4)c23)cc1O | 562 nM |
| COc1cc2c(cc1O)c[n+]([O-])c1c3ccc4cc(O)ccc4c3n(C)c21 | 3550 nM |
| COc1cc2c(cnc3c4ccc5cc(O)ccc5c4n(CCCN4CCOCC4)c23)cc1O | 19 nM |
| COc1cc2c(cnc3c4ccc5cc(O)ccc5c4n(C)c23)cc1O | 437 nM |
| COc1cc2c(cnc3c4ccc5cc(O)ccc5c4n(CCCCl)c23)cc1O | 316 nM |
| COc1cc2c(ccc3c4c(=O)oc5cc(O)c(OC)cc5c4n(C)c23)cc1O | 33 nM |
| COc1cc2c(cnc3c4ccc5cc(O)ccc5c4n(CCN(C)C)c23)cc1O | 912 nM |

Test system: DU-145
Test: Growth inhibition of human DU-145 cells assessed as reduction in cell viability
Format: functional
Details: not given

| Compound | GI50 |
| --- | --- |
| COc1cc2c(cnc3c4ccc5cc(O)ccc5c4n(CCCn4ccnc4)c23)cc1O | 141 nM |
| COc1cc2c(cnc3c4ccc5cc(O)ccc5c4n(CCCN4CCC(N5CCCCC5)CC4)c23)cc1O | 759 nM |
| COc1cc2c(cc1O)c[n+]([O-])c1c3ccc4cc(O)ccc4c3n(C)c21 | 62 nM |
| COc1cc2c(cnc3c4ccc5cc(O)ccc5c4n(CCCN4CCOCC4)c23)cc1O | < 10 nM |
| COc1cc2c(cnc3c4ccc5cc(O)ccc5c4n(C)c23)cc1O | 282 nM |
| COc1cc2c(cnc3c4ccc5cc(O)ccc5c4n(CCCCl)c23)cc1O | 32 nM |
| COc1cc2c(ccc3c4c(=O)oc5cc(O)c(OC)cc5c4n(C)c23)cc1O | 2.5 nM |
| COc1cc2c(cnc3c4ccc5cc(O)ccc5c4n(CCN(C)C)c23)cc1O | < 10 nM |

Target: T1, DNA topoisomerase 1 (Homo sapiens) (UniProt P11387)
T1 sequence (whole entry): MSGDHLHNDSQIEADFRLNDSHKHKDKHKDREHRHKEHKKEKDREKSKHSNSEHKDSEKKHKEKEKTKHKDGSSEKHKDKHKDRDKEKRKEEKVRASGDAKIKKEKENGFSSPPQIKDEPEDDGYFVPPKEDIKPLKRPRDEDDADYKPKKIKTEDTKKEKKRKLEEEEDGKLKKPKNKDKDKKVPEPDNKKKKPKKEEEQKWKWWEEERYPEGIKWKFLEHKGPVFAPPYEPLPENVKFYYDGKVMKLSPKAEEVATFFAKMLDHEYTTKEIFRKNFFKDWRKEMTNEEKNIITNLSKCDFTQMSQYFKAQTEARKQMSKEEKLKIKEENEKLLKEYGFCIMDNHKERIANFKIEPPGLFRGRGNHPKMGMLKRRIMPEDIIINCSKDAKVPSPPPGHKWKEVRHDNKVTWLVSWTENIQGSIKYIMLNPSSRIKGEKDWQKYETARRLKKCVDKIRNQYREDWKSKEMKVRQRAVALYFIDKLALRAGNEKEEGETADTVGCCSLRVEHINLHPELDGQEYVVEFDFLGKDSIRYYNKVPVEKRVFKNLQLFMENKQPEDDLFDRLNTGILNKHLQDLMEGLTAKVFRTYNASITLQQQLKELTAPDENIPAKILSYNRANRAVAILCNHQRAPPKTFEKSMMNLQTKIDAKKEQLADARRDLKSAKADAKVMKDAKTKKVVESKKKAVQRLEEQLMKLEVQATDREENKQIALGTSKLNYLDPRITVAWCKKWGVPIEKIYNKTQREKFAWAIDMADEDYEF
Test: Inhibition of human DNA topoisomerase 1 assessed as reduction in pBR322 DNA relaxation at 20 to 100 uM by agarose gel electrophoresis method
Details: dose 20-100 µM

| Compound | inhibition |
| --- | --- |
| COc1cc2c(cnc3c4ccc5cc(O)ccc5c4n(CCCN4CCC(N5CCCCC5)CC4)c23)cc1O | Active |
| COc1cc2c(cnc3c4ccc5cc(O)ccc5c4n(CCCN4CCOCC4)c23)cc1O | Active |
| COc1cc2c(cnc3c4ccc5cc(O)ccc5c4n(CCN(C)C)c23)cc1O | Active |

Target: T1, DNA topoisomerase 1 (Homo sapiens)
Test: Inhibition of human DNA topoisomerase 1 assessed as reduction in pBR322 DNA relaxation at 20 to 100 uM in presence of ethidium bromide by agarose gel electrophoresis method
Details: dose 20-100 µM

| Compound | inhibition |
| --- | --- |
| COc1cc2c(cnc3c4ccc5cc(O)ccc5c4n(CCCn4ccnc4)c23)cc1O | inactive |
| COc1cc2c(cc1O)c[n+]([O-])c1c3ccc4cc(O)ccc4c3n(C)c21 | Active |
| COc1cc2c(cnc3c4ccc5cc(O)ccc5c4n(CCCN4CCOCC4)c23)cc1O | Active |
| COc1cc2c(cnc3c4ccc5cc(O)ccc5c4n(CCN(C)C)c23)cc1O | Active |
